The record followed here is patent US20250186456A1, “PYRIMIDINE-FUSED CYCLIC COMPOUND AND PREPARATION METHOD AND USE THEREOF” (Genfleet Therapeutics (Shanghai) Inc., priority 2021, published 2025).

Holding throughout (type): cell-based, human
Assay [1] relates to p-ERK in AGS cells (KRAS G12D mutation). The assay can be described thus: Cell p-ERK assay (HTRF, Advance ERK phospho-T202/Y204 kit). Conditions: AGS cells, 3 hours incubation with compound, HTRF, read-out: AGS p-ERK IC50. Summed up:
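AGS cells (endogenous KRAS G12D) seeded at ~20000 cells/well overnight, then treated 3 h with 3.16-fold compound dilutions, 0.1% DMSO final. Lysates assayed for phospho-T202/Y204 ERK by HTRF after 4 h antibody incubation; inhibition vs DMSO and blank, IC50 by four-parameter fit.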
Background: Time-resolved FRET reads energy transfer from a long-lived donor to a nearby acceptor.

In assay [2] the test system is AGS cells (KRAS G12D). Put plainly: Cell proliferation inhibition assay, 3D, CellTiter-Glo 3D, AGS. The conditions noted are these: AGS 3D sphere model, 5 days incubation. The method, boiled down:
(§1)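 Spheroids (800 AsPC-1 or 400 AGS cells/well; RPMI-1640 or F-12K with 10% FBS) formed overnight, then were dosed on day 2 with a 3.16-fold series at 0.1% DMSO. After 5 days, viability was read by CellTiter-Glo 3D luminescence, and IC50 came from four-parameter fits of inhibition versus DMSO control and medium blank.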
In general terms: Cellular ATP, detected with luciferase, serves as a proxy for viable cell number.

Assay [3] has as its system AsPC-1 cells (KRAS G12D mutation). The assay can be described thus: Cell proliferation inhibition assay, 3D, CellTiter-Glo 3D, AsPC-1. The conditions noted are these: AsPC-1 3D sphere model, 5 days incubation. Summed up: as §1

Like-named read-outs stand apart in the source and are kept apart here.

For orientation: IC50 means the concentration that inhibits the measured activity by half. Turning to `C#Cc1cccc2cc(O)cc(-c3nc4c5c(nc(OC[C@@]67CCCN6C[C@H](F)C7)nc5c3F)N3C[C@H]5CC[C@H](N5)[C@H]3[C@H](C)O4)c12` [Example Z384, 5-ethynyl-4-((5S,5aS,6S,9R)-1-fluoro-12-(((2R,7aS)-2-fluorotetrahydro-1H-pyrrolizin-7a (5H)-yl)methoxy)-5-methyl-5a,6,7,8,9,10-hexahydro-5H-4-oxa-3,10a, 11,13,14-pentaaza-6,9-methanonaphtho[1,8-ab]heptalen-2-yl) naphthalen-2-ol], the IC50 in assay [1] (Homo sapiens) was 0.65 nM; in assay [2] (Homo sapiens, 120 h) it was 1.5 nM; in assay [3] (Homo sapiens, ASPC1, 120 h), 7.34 nM.

As to `C#Cc1c(F)ccc2cccc(-c3nc4c5c(nc(OCC67CCCN6CCC7=CF)nc5c3F)N3C[C@H]5CC[C@H](N5)[C@H]3[C@H](C)O4)c12` (stereo partly drawn) [Example Z611, (5S,5aS,68,9R)-2-(8-ethynyl-7-fluoronaphthalen-1-yl)-1-fluoro-12-((1-(fluoromethylene)tetrahydro-1H-pyrrolizin-7a (5H)-yl)methoxy)-5-methyl-5a,6,7,8,9,10-hexahydro-5H-4-oxa-3,10a,11,13,14-pentaaza-6,9-methanonaphtho[1,8-ab]heptalene], the IC50 in assay [1] (Homo sapiens) came out at 19.6 nM; in assay [2] (Homo sapiens, 120 h) it was 10.4 nM; in assay [3] (Homo sapiens, ASPC1, 120 h), 49.1 nM.

Consider `C#Cc1cccc2cccc(-c3nc4c5c(nc(OC[C@]67CCCN6CCC7=C)nc5c3F)N3C[C@H]5CC[C@H](N5)[C@H]3[C@H](C)O4)c12` [Example Z677, (5S,5aS,6S,9R)-2-(8-ethynylnaphthalen-1-yl)-1-fluoro-5-methyl-12-(((R)-1-methylenetetrahydro-1H-pyrrolizin-7a (5H)-yl)methoxy)-5a,6,7,8,9,10-hexahydro-5H-4-oxa-3,10a,11,13,14-pentaaza-6,9-methanonaphtho[1,8-ab]heptalene], for which the IC50 is 185 nM in assay [1] (Homo sapiens); 795 nM in assay [2] (Homo sapiens, 120 h); 981 nM in assay [3] (Homo sapiens, ASPC1, 120 h).

Take `C#Cc1c(F)ccc2cccc(-c3nc4c5c(nc(OC[C@@]67CCCN6C[C@H](F)C7)nc5c3F)N3C[C@H]5CC[C@H](N5)[C@H]3[C@H](C)O4)c12` [Example Z632, (5S,5aS,6S,9R)-2-(8-Ethynyl-7-Fluoronaphthalen-1-Yl)-1-Fluoro-12-(((2R,7aS)-2-Fluorotetrahydro-1H-Pyrrolizin-7a (5H)-Yl)Methoxy)-5-Methyl-5a,6,7,8,9,10-Hexahydro-5H-4-Oxa-3,10a,11,13,14-Pentaaza-6,9-Methanonaphtho[1,8-Ab]Heptalene]: the IC50 in assay [1] (Homo sapiens) stood at 30.4 nM; in assay [2] (Homo sapiens, 120 h), 26.2 nM; in assay [3] (Homo sapiens, ASPC1, 120 h), 53.8 nM.

As to `C#Cc1cccc2cc(N)cc(-c3nc4c5c(nc(OCC67CC(=C)CN6CC(=C)C7)nc5c3F)N3C[C@H]5CC[C@H](N5)[C@H]3[C@H](C)O4)c12` [Example Z703, 4-((5S,5aS,6S,9R)-12-((2,6-dimethylenetetrahydro-1H-pyrrolizin-7a (5H)-yl)methoxy)-1-fluoro-5-methyl-5a,6,7,8,9,10-gexahydro-5H-4-oxa-3,10a,11,13,14-pentaaza-6,9-methanonaphtho[1,8-ab]heptalene-2-yl)-5-ethynylnaphthalen-2-amine], the IC50 in assay [1] amounted to 1.05 nM; in assay [2], 2.64 nM; in assay [3] it was 1.78 nM.

In the case of `C#Cc1cccc2cc(N)cc(-c3nc4c5c(nc(OCC67CC(=C)CN6C[C@H](F)C7)nc5c3F)N3C[C@H]5CC[C@H](N5)[C@H]3[C@H](C)O4)c12` (stereo partly drawn) [Example Z699, 5-ethynyl-4-((5S,5aS,6S,9R)-1-fluoro-12-(((2R)-2-fluoro-6-methylenetetrahydro-1H-pyrrolizin-7a (5H)-yl)methoxy)-5-methyl-5a,6,7,8,9,10-hexahydro-5H-4-oxa-3,10a, 11,13,14-pentaaza-6,9-methanonaphtho[1,8-ab]heptalen-2-yl) naphthalen-2-amine], the IC50 in assay [1] (Homo sapiens) amounted to 0.44 nM; in assay [2] (Homo sapiens, 120 h) it was 1.98 nM; in assay [3] (Homo sapiens, ASPC1, 120 h), 2.37 nM.

For `C=C1CCN2C[C@H](F)CC12COc1nc2c3c(nc(-c4cc(N)c(F)c5ccc(F)c(F)c45)c(F)c3n1)O[C@@H](C)[C@@H]1[C@@H]3CC[C@H](CN21)N3` (stereo partly drawn) [Example Z731, 1,5,6-trifluoro-4-((5S, 5aS,6S,9R)-1-fluoro-12-(((6R)-6-fluoro-1-methylenetetrahydro-1H-pyrrolizin-7a (5H)-yl)methoxy)-5-methyl-5a,6,7,8,9,10-hexahydro-5H-4-oxa-3,10a, 11,13,14-pentaaza-6,9-methanonaphtho[1,8-ab]heptalene-2-yl) naphthalen-2-amine], the IC50 was determined as 1.6 nM in assay [1] (Homo sapiens); 5.7 nM in assay [2] (Homo sapiens, 120 h); 15.8 nM in assay [3] (Homo sapiens, ASPC1, 120 h).

For `C#Cc1c(F)ccc2cccc(-c3nc4c5c(nc(OCC67C[C@@H](OC)CN6CCC7=C)nc5c3F)N3C[C@H]5CC[C@H](N5)[C@H]3[C@H](C)O4)c12` (stereo partly drawn) [Example Z688, (5S,5aS,6S,9R)-2-(8-Ethynyl-7-Fluoronaphthalen-1-Yl)-1-Fluoro-12-(((6R)-6-Methoxy-1-Methylenetetrahydro-1H-Pyrrolizin-7a (5H)-Yl)Methoxy)-5-Methyl-5a,6,7,8,9,10-Hexahydro-5H-4-Oxa-3,10a,11,13,14-Pentaaza-6,9-Methanonaphtho[1,8-Ab]Heptalene], the IC50 in assay [1] (Homo sapiens) was found to be 8.77 nM; in assay [2] (Homo sapiens, 120 h), 20 nM; in assay [3] (Homo sapiens, ASPC1, 120 h), 39.2 nM.

As to `C#Cc1c(F)ccc2cccc(-c3nc4c5c(nc(OCC67CCCN6[C@H]6C[C@H]6C7)nc5c3F)N3C[C@H]5CC[C@H](N5)[C@H]3[C@H](C)O4)c12` (stereo partly drawn) [Example Z625, (5S,5aS,6S,9R)-2-(8-Ethynyl-7-Fluoronaphthalen-1-Yl)-1-Fluoro-12-(((1aS,6aS)-Hexahydrocyclopropa[b]Pyrrolizin-Sa (3H)-Yl)Methoxy)-5-Methyl-5a,6,7,8,9,10-Hexahydro-5H-4-Oxa-3,10a,11,13,14-Pentaaza-6,9-Methanonaphtho[1,8-Ab]Heptalene], the IC50 in assay [1] was found to be 81.9 nM; in assay [2] it was 107 nM; in assay [3], 405 nM.

As to `C#Cc1cccc2cc(N)cc(-c3nc4c5c(nc(OCC6(CN7CCOCC7)CC6)nc5c3F)N3C[C@H]5CC[C@H](N5)[C@H]3[C@H](C)O4)c12` [Example Z700, 5-Ethynyl-4-((5S,5aS,6S,9R)-1-Fluoro-5-Methyl-12-((1-(Morpholinomethyl)Cyclopropyl)Methoxy)-5a,6,7,8,9,10-Hexahydro-5H-4-Oxa-3,10a, 11,13,14-Pentaaza-6,9-Methanonaphtho[1,8-Ab]Heptalen-2-Yl) Naphthalen-2-Amine], the concentration for half-maximal inhibition (IC50) in assay [1] (Homo sapiens) turned out to be 0.39 nM; in assay [2] (Homo sapiens, 120 h) it was 1.91 nM; in assay [3] (Homo sapiens, ASPC1, 120 h), 2.14 nM.

In the case of `C#Cc1cccc2nc(N)cc(-c3nc4c5c(nc(OCC67CCCN6CC(F)(F)C7)nc5c3F)N3C[C@H]5CC[C@H](N5)[C@H]3[C@H](C)O4)c12` (stereo partly drawn) [Example Z726, 4-((5S,5aS,6S,9R)-12-((2,2-difluorotetrahydro-1H-pyrrolizin-7a (5H)-yl)methoxy)-1-fluoro-5-methyl-5a,6,7,8,9,10-hexahydro-5H-4-oxa-3,10a, 11,13,14-pentaaza-6,9-methanonaphtho[1,8-ab]heptalene-2-yl)-5-ethynylquinolin-2-amine], the IC50 in assay [1] (Homo sapiens) is 78.8 nM; in assay [2] (Homo sapiens, 120 h) it was 133 nM; in assay [3] (Homo sapiens, ASPC1, 120 h), 638 nM.

As for `Cc1cc(N)c(C)c(-c2nc3c4c(nc(OCC5(CN6CCOCC6)CC5)nc4c2F)N2C[C@H]4CC[C@H](N4)[C@H]2[C@H](C)O3)c1C1CC1` [Example Z717, 4-cyclopropyl-3-((5S,5aS,6S,9R)-1-fluoro-5-methyl-12-((1-(morpholinomethyl)cyclopropyl)methoxy)-5a,6,7,8,9,10-hexahydro-5H-4-oxa-3,10a, 11,13,14-pentaaza-6,9-methanonaphtho[1,8-ab]heptalen-2-yl)-2,5-dimethylaniline], the IC50 in assay [1] (Homo sapiens) amounted to 14.8 nM; in assay [2] (Homo sapiens, 120 h), 29.1 nM; in assay [3] (Homo sapiens, ASPC1, 120 h), 50.2 nM.

For `C#Cc1cccc2cccc(-c3nc4c5c(nc(OCC67CC(=C)CN6C[C@H](F)C7)nc5c3F)N3C[C@H]5CC[C@H](N5)[C@H]3[C@H](C)O4)c12` (stereo partly drawn) [Example Z678, (5S,5aS,6S,9R)-2-(8-ethynylnaphthalen-1-yl)-1-fluoro-12-(((2R)-2-fluoro-6-methylenetetrahydro-1H-pyrrolizin-7a (5H)-yl)methoxy)-5-methyl-5a,6,7,8,9,10-hexahydro-5H-4-oxa-3,10a, 11, 13,14-pentaaza-6,9-methanonaphtho[1,8-ab]heptalene], the IC50 in assay [1] (Homo sapiens) came out at 12.4 nM; in assay [2] (Homo sapiens, 120 h), 100 nM; in assay [3] (Homo sapiens, ASPC1, 120 h), 73.5 nM.
